These compounds were tested against Brd4 bromodomain 1 (BRD4(1)) (Homo sapiens, UniProt O60885) (assay: Inhibition of tetra-acetylated histone H4 binding to Brd4 bromodomain 1, measured by FRET (HTRF)). Settings: 2 h at room temperature.
Design: made in house; host or cells: E. coli BL21(DE3)
Protocol: Proteins were cloned and overexpressed with a N-terminal 6×His tag, then purified by nickel affinity followed by size exclusion chromatography. Briefly, E. coli BL21(DE3) cells were transformed with a recombinant expression vector encoding N-terminally Nickel affinity tagged bromodomains from Brd2, Brd3, Brd4. Cell cultures were incubated at 37° C. with shaking to the appropriate density and induced overnight with IPTG. The supernatant of lysed cells was loaded onto Ni-IDA column for purification. Eluted protein was pooled, concentrated and further purified by size exclusion chromatography. Fractions representing monomeric protein were pooled, concentrated, aliquoted, and frozen at −80° C. for use in subsequent experiments.
Binding of tetra-acetylated histone H4 and BET bromodomains was confirmed by a Homogenous Time Resolved Fluorescence Resonance Energy Transfer (HTRF®) method. N-terminally His-tagged bromodomains (200 nM) and biotinylated tetra-acetylated histone H4 peptide (25-50 nM, Millipore) were incubated in the presence of Europium Cryptate-labeled streptavidin (Cisbio Cat. #610SAKLB) and XL665-labeled monoclonal anti-His antibody (Cisbio Cat. #61HISXLB) in a white 96 well microtiter plate (Greiner). For inhibition assays, serially diluted test compound was added to these reactions in a 0.2% final concentration of DMSO. Duplicate wells were used for each concentration tested. Final buffer concentrations were 30 mM HEPES pH 7.4, 30 mM NaCl, 0.3 mM CHAPS, 20 mM phosphate pH 7.0, 320 mM KF, 0.08% BSA. After a 2 h incubation at room temperature, fluorescence was measured at 665 and 620 nm with a SynergyH4 plate reader (Biotek). The binding inhibitory activity was shown by a decrease in 665 nm relative to 620 nm fluorescence. IC50 values were determined from a dose response curve.

Compound	IC50 [µM]
Cc1nc2c(-c3c(C)noc3C)cc(-c3c(C)noc3C)nc2[nH]1 [Example Compound 176, 4,4′-(2-methyl-3H-imidazo[4,5-b]pyridine-5,7-diyl)bis(3,5-dimethylisoxazole)]	0.3 to 3
Cc1nc2c(Nc3ncccc3C)cc(-c3c(C)noc3C)cc2[nH]1 [Example Compound 63, 6-(3,5-dimethyl-isoxazol-4-yl)-2-methyl-N-(3-methylpyridin-2-yl)-1H-benzo[d] imidazol-4-amine]	0.3 to 3
Cc1nc2c(-c3cn(C)nc3C(F)(F)F)cc(-c3c(C)noc3C)cc2[nH]1 [Example Compound 115, 3,5-dimethyl-4-(2-methyl-4-(1-methyl-3-(trifluoro-methyl)-1H-pyrazol-4-yl)-1H-benzo[d]imidazol-6-yl)isoxazole]	0.3 to 3
Cc1nc2c(-c3cc(C(=O)O)ccc3C)cc(-c3c(C)noc3C)cc2[nH]1 [Example Compound 75, 3-(6-(3,5-dimethyl-isoxazol-4-yl)-2-methyl-1H-benzo[d]imidazol-4-yl)-4-methyl benzoic acid]	0.3 to 3
Cc1nc2c(-c3ccc(Cl)cc3C)cc(-c3c(C)noc3C)cc2[nH]1 [Example Compound 90, 4-(4-(4-chloro-2-methyl-phenyl)-2-methyl-1H-benzo[d]imidazol-6-yl)-3,5-dimethyl isoxazole]	0.3 to 3
Cc1noc(C)c1-c1cc(Nc2cnccn2)c2nc[nH]c2c1 [Example Compound 62, 6-(3,5 dimethyl-isoxazol-4-yl)-N-(pyrazin-2-yl)-1H-benzo[d] imidazol-4-amine]	0.3 to 3
Cc1noc(C)c1-c1nc(-c2c(C)noc2C)c2ccccc2n1 [Example Compound 3, 4,4′-(quinazoline-2,4-diyl)bis (3,5-dimethyl isoxazole)]	3 to 30
Cc1nc2c(-c3cn(C)nc3C)cc(-c3cn(C)nc3C)cc2[nH]1 [Example Compound 133, 4,6-bis(1,3-dimethyl-1H-pyrazol-4-yl)-2-methyl-1H-benzo[d] imidazole]	3 to 30
Cc1noc(C)c1-c1cc(-c2c(C)noc2C)c2nccnc2c1 [Example Compound 159, 4,4′-(quinoxaline-5,7-diyl)bis(3,5-dimethylisoxazole)]	0.3 to 3
Cc1nc2c(-c3ncsc3C)cc(-c3c(C)noc3C)cc2[nH]1 [Example Compound 113, 3,5-dimethyl-4-(2-methyl-4-(5-methyl-thiazol-4-yl)-1H-benzo[d]imidazol-6-yl)isoxazole]	0.3 to 3
Cc1ccc(C(=O)N2CCCC2)cc1-c1cc(-c2c(C)noc2C)cc2[nH]c(N3CCCC3)nc12 [Example Compound 218, (3-(6-(3,5-dimethylisoxazol-4-yl)-2-(pyrrolidin-1-yl)-1H-benzo[d]imidazol-4-yl)-4-methylphenyl)(pyrrolidin-1-yl)methanone]	≤ 0.3
Cc1noc(C)c1-c1cc(-c2c(C)noc2C)c2nc(NCc3cccnc3)[nH]c2c1 [Example Compound 65, 4,6-bis(3,5-dimethyl-isoxazol-4-yl)-N-(pyridin-3-ylmethyl)-1H-benzo[d] imidazol-2-amine]	≤ 0.3
Cc1noc(C)c1-c1cc(-c2c(C)nn(C)c2C)c2nc(NCc3cccnc3)[nH]c2c1 [Example Compound 221, 6-(3,5-dimethyl-isoxazol-4-yl)-N-(pyridin-3-ylmethyl)-4-(1,3,5-trimethyl-1H-pyrazol-4-yl)-1H-benzo[d] imidazol-2-amine]	≤ 0.3
Cc1nc2c(-c3ccccc3C(F)(F)F)cc(-c3c(C)noc3C)cc2[nH]1 [Example Compound 78, 3,5-dimethyl-4-(2-methyl-4-(2-(trifluoromethyl)phenyl)-1H-benzo[d]imidazol-6-yl)isoxazole]	0.3 to 3
Cc1nc2c(-c3sc(C)nc3C)cc(-c3sc(C)nc3C)cc2[nH]1 [Example Compound 168, 5,5′-(2-methyl-1H-benzo[d]imidazole-4,6-diyl) bis(2,4-dimethylthiazole)]	3 to 30
COc1ccccc1S(=O)(=O)Nc1cc(-c2c(C)noc2C)cc2[nH]cnc12 [Example Compound 102, N-(6-(3,5-dimethylisoxazol-4-yl)-1H-benzo[d]imidazol-4-yl)-2-methoxybenzenesulfonamide]	0.3 to 3
Cc1nc2c(-c3cccc4cccnc34)cc(-c3c(C)noc3C)cc2[nH]1 [Example Compound 111, 3,5-dimethyl-4-(2-methyl-4-(quinolin-8-yl)-1H-benzo[d]imidazol-6-yl)isoxazole]	0.3 to 3
Cc1nc2c(-c3cccc(OC(F)(F)F)c3)cc(-c3c(C)noc3C)cc2[nH]1 [Example Compound 96, 3,5-dimethyl-4-(2-methyl-4-(3-(trifluoro-methoxy)phenyl)-1H-benzo[d]imidazol-6-yl)isoxazole]	≤ 0.3
CSc1nc2cc(-c3c(C)noc3C)cc(-c3c(C)nn(C)c3C)c2n1C [Example Compound 191, 3,5-dimethyl-4-(1-methyl-2-(methylthio)-7-(1,3,5-trimethyl-1H-pyrazol-4-yl)-1H-benzo[d]imidazol-5-yl)isoxazole]	≤ 0.3
Cc1nc2c(-c3c(C)cnn3C)cc(-c3c(C)cnn3C)cc2[nH]1 [Example Compound 167, 4,6-bis(1,4-dimethyl-1H-pyrazol-5-yl)-2-methyl-1H-benzo[d] imidazole]	0.3 to 3
Cc1ccncc1-c1cc(-c2c(C)noc2C)cc2[nH]c(N3CCN(C)CC3)nc12 [Example Compound 199, 3,5-dimethyl-4-(2-(4-methylpiperazin-1-yl)-4-(4-methylpyridin-3-yl)-1H-benzo[d]imidazol-6-yl)isoxazole]	0.3 to 3

Next, values leading:

IC50 [µM]	Compound
≤ 0.3	Cc1noc(C)c1-c1cc(-c2c(C)noc2C)c2nc(NCc3ccccc3)[nH]c2c1 [Example Compound 31, N-benzyl-4,6-bis(3,5-dimethylisoxazol-4-yl)-1H-benzo[d] imidazol-2-amine]
0.3 to 3	Cc1nc2c(N3CCCCC3=O)cc(-c3c(C)noc3C)cc2[nH]1 [Example Compound 122, 1-(6-(3,5-dimethylisoxazol-4-yl)-2-methyl-1H-benzo[d]imidazol-4-yl)piperidin-2-one]
≤ 0.3	Cc1nc2cc(-c3c(C)noc3C)cc(-c3c(C)noc3C)c2o1 [Example Compound 101, 5,7-bis(3,5-dimethylisoxazol-4-yl)-2-methylbenzo[d]oxazole]
≤ 0.3	Cc1noc(C)c1-c1cc(-c2c(C)nn(C)c2C)c2nc(N3CCC3)[nH]c2c1 [Example Compound 217]
3 to 30	Cc1nc2c(-c3ccccc3C#N)cc(-c3c(C)noc3C)cc2[nH]1 [Example Compound 71, 2-(6-(3,5-dimethyl-isoxazol-4-yl)-2-methyl-1H-benzo[d]imidazol-4-yl)benzonitrile]
3 to 30	Cc1noc(C)c1-c1cc(-c2c(C)noc2C)c2ncnn2c1 [Example Compound 17, 4,4′-([1,2,4]triazolo [1,5-a]pyridine-6,8-diyl)bis (3,5-dimethyl-isoxazole)]
3 to 30	Cc1noc(C)c1-c1cc(-c2c(C)noc2C)c2n[nH]c(=O)n2c1 [Example Compound 149, 6,8-bis(3,5-dimethyl-isoxazol-4-yl)-[1,2,4] triazolo[4,3-a] pyridin-3(2H)-one]
0.3 to 3	Cc1noc(C)c1-c1cc(-c2c(C)noc2C)c2nc(N(C)C)[nH]c2c1 [Example Compound 116, 4,6-bis(3,5-dimethyl-isoxazol-4-yl)-N,N-dimethyl-1H-benzo[d] imidazol-2-amine]
≤ 0.3	Cc1ccc(C(N)=O)cc1-c1cc(-c2c(C)noc2C)cc2[nH]c(NCc3ccccc3)nc12 [Example Compound 220, 3-(2-(benzyl-amino)-6-(3,5-dimethylisoxazol-4-yl)-1H-benzo[d]imidazol-4-yl)-4-methyl-benzamide]
0.3 to 3	Cc1ccc(-c2cc(-c3c(C)noc3C)cc3[nH]c(C)nc23)nn1 [Example Compound 86, 3,5-dimethyl-4-(2-methyl-4-(6-methyl-pyridazin-3-yl)-1H-benzo[d]imidazol-6-yl)isoxazole]
0.3 to 3	Cc1nc2c(-c3cccc(F)c3C#N)cc(-c3c(C)noc3C)cc2[nH]1 [Example Compound 83, 2-(6-(3,5-dimethyl-isoxazol-4-yl)-2-methyl-1H-benzo[d]imidazol-4-yl)-6-fluoro-benzonitrile]
0.3 to 3	Cc1nc2c(-c3ccnn3C)cc(-c3ccnn3C)cc2[nH]1 [Example Compound 134, 2-methyl-4,6-bis(1-methyl-1H-pyrazol-5-yl)-1H-benzo[d] imidazole]
≤ 0.3	Cc1ccc(C(N)=O)cc1-c1cc(-c2c(C)noc2C)cc2[nH]c(NCc3cccnc3)nc12 [Example Compound 219, 3-(6-(3,5-dimethyl-isoxazol-4-yl)-2-((pyridin-3-ylmethyl)amino)-1H-benzo[d]imidazol-4-yl)-4-methyl-benzamide]
3 to 30	Cc1noc(C)c1-c1cn2ccnc2c(-c2c(C)noc2C)n1 [Example Compound 10, 4,4′-(imidazo [1,2-a]pyrazine-6,8-diyl)bis(3,5-dimethylisoxazole)]
